{"source": "patent US9296692B2", "about": "“Use of indolyl and indolinyl hydroxamates for treating heart failure of neuronal injury” (TAIPEI MEDICAL UNIVERSITY, priority 2011, dated 2016)", "key": {"[1]": {"test_system": "heart failure (HF) rats", "assay": "Echocardiography in isoproterenol-induced heart failure (HF) rats", "assay_type": "in vivo, Wistar rats", "experimental": "Adult male Wistar rats (each weighted about 240-270 g, and were purchased from BioLASCO Taiwan Co., Ltd) were used in this study. […] Heart failure (HF) rats received one subcutaneous injection of isoproterenol at a dosage of 100 mg/Kg. They were housed in an animal room under temperature control (24-25° C.) and 12:12 light-dark cycle. Standard laboratory rat chow and tap water were available ad libitum. […] A midline thoracotomy was then performed, and the heart was removed, weighed, and dissected from each rat for further analysis. Echocardiograms were performed before the animals were euthanized, using HP Sonos 5500 system with a 15-6L probe (6 to 15 MHz, SONOS 5500, Agilent Technologies, Palo Alto, Calif.) or Vivid I ultrasound cardiovascular system (GE Healthcare, Haifa, Israel). LV end-diastolic diameter (LVEDD), LV end-systolic diameter (LVESD), and wall thickness were measured from M-mode tracings. The LV fractional shortening percentage was calculated as ([LVEDD-LVESD]/LVEDD)×100. The LV ejection fraction was calculated by Techholz's formula. All quantitative data are expressed as the mean±S.E.M, and un-paired T test was used to compare the differences between groups."}, "[2]": {"test_system": "TBI rats", "assay": "Skilled forelimb reaching task in TBI rats", "assay_type": "in vivo, Sprague-Dawley rats", "conditions": "30 mg/Kg intravenous at 0-7 days after TBI", "source_text": "Adult male Sprague-Dawley rats (each weighted about 250-300 g, and were purchased from BioLASCO Taiwan Co., Ltd) were used in this study. The rats were randomly allocated into three groups: (i) TBI+test Compound (e.g., Compound 1 or valproic acid (VPA)), (ii) TBI+VEH (i.e., vehicle-treated TBI rats), and (iii) Sham (sham-operated control). They were housed in an animal room under temperature control (24-25) and 12:12 light-dark cycle. Standard laboratory rat chow and tap water were available ad libitum. All animal experiments were carried out in accordance with the guidelines established by the Institutional Animal Care and Utilization Committee of the Taipei Medical University (Taipei, Taiwan, R.O.C.).\nSurgical anesthesia was induced by ketamine (90 mg/kg body weight) and xylazine (10 mg/kg body weight), which were administered intraperitoneally (ip). Following anesthesia, the animals were secured in a stereotaxic frame and ventilated mechanically. A cortical contusion was produced on the exposed cortex using a controlled impactor device TBI-0200 TBI Model system (Precision Systems and Instrumentation). […]\nAll test animals were trained to criterion on the skilled forelimb reaching task. […] During the initial days of training, limb preference was determined and placement of pellets was adjusted to favor the use of the preferred forelimb. […]"}, "[3]": {"test_system": "cAMP response element-binding protein (CREB)", "assay": "Western blot analysis of CREB in brain of MCAO rats", "assay_type": "in vivo", "conditions": "30 mg/Kg intravenous, RA, LA, RP, LP brain areas", "description": "(§1) In this example, effects of compounds of this invention were varified using ischematic stroke animal model.\n(§2) The bilateral common carotid arteries were isolated through a neck incision and occluded with aneurysm clips. […] After 60 minutes, rats were re-anesthetized, the carotid clips were removed, and the neck incision was closed. The rats were returned to their home cage after fully recovered from anesthesia. The sham surgery is similar to the MCAO surgery, which included the step of opening the dura, yet without the steps of isolating, clipping, or coagulating neither the MCA nor carotid vessel.\nCompound 1 was dissolved in 5% ethanol, 35% polyethylene glycol and 60% normal saline at a concentration of 15 mg/ml. All test animals received intravenous injection of either compound 1 (30 mg/Kg), valproic acid (VPA, 30 mg/kg) or vehicle (5% ethanol, 35% polyethylene glycol and 60% normal saline) at 0-7 days after MCAO.\nCollected protein samples were mixed with Laemli sample buffer. […] The Immunoblottingquantification was fulfilled via Quantity OneTMsoftware (Bio-Rad).\nLevel of CREB phosphorylaiton was measured by western blot ananlysis in accordance with steps described in Example 4.3. […]"}, "[4]": {"test_system": "MCAO rats", "assay": "Infarction volume (TTC staining) in middle cerebral artery occlusion (MCAO) rats", "assay_type": "in vivo", "conditions": "30 mg/Kg intravenous, N=5 per group, 3 days", "description": "as §1, §2\nCompound 1 was dissolved in 5% ethanol, 35% polyethylene glycol and 60% normal saline at a concentration of 15 mg/ml. […]\nMedicaments prepared in accordance with steps described in Example 4.2 were given to the 3 groups of MCAO rats of Example 4.1 (N=5, for each group), and the infraction area of these animals were then stained and estimated by similar steps described in Examples 3.4 and 3.5, and results are illustrated in FIGS. 7A and 7B. […] In another example, after induction of MACO, rats were infused with compound 1 at 30 min, 2 hrs, 4 hrs, and 24 hrs, respectively; and the infarction volume was calculated 3 days after MCAO."}, "[5]": {"conditions": "HF rats, after treatment, 100 mg/kg oral gavage once daily for 7 days, mean±S.E.M"}, "[6]": {"conditions": "HF rats, before treatment (baseline of the group), n = 7, mean±S.E.M"}}, "note": "“And” between values parts separate entries of the source, which are not always exact repeats. Equal entries are not always repeated."}
{"smiles": "NNc1nncc2ccccc12", "note": "[hydralazine, reference compound]", "values": [{"measurement": "Ejection fraction", "setting": "[1]; HF rats (isoproterenol 150 mg/kg s.c.), after 10 mg/kg i.p. once daily for 7 days, data not shown", "value": "76±10", "unit": "%"}, {"measurement": "Ejection fraction", "setting": "[1]; HF rats (isoproterenol 150 mg/kg s.c.), starting value that the ejection fraction increased from, data not shown", "value": "59±4", "unit": "%"}]}
{"smiles": "CCCC(CCC)C(=O)O", "note": "[VPA, valproic acid]", "values": [{"measurement": "Behaviour function deficits (skilled forelimb reaching task), FIG. 6", "setting": "[2]", "value": "significantly improve the behaviour function deficits caused by TBI"}, {"measurement": "Up-regulation of CREB (p-CREB and t-CREB), FIG. 8", "setting": "[3]", "value": "up-regulation of cAMP response element-binding protein (CREB)"}, {"measurement": "Infarction volume, FIG. 7A", "setting": "[4]", "value": "significant reduction of infarction volume"}]}
{"smiles": "O=C(/C=C/c1ccc2c(ccn2S(=O)(=O)c2ccccc2)c1)NO", "note": "[compound 1, 3-(1-benzensulfonyl-1H-indol-5-yl)-N-hydroxy-acrylamide]", "values": [{"measurement": "Fraction shortening", "setting": "[1]; [5]", "value": "47 ± 3", "unit": "%"}, {"measurement": "IVSd", "setting": "[1]; [5]", "value": "1.3 ± 0.1", "unit": "mm"}, {"measurement": "LVEDd", "setting": "[1]; [5]", "value": "4.6 ± 0.2", "unit": "mm"}, {"measurement": "LVESd", "setting": "[1]; [5]", "value": "2.4 ± 0.2", "unit": "mm"}, {"measurement": "Ejection fraction", "setting": "[1]; HF rats, after treatment, 100 mg/kg oral gavage once daily for 7 days, mean±S.E.M, 100 mg/kg", "value": "81% and 81 ± 3 %"}, {"measurement": "Ejection fraction", "setting": "[1]; [6]", "value": "68 ± 2", "unit": "%"}, {"measurement": "Fraction shortening", "setting": "[1]; [6]", "value": "38 ± 3", "unit": "%"}, {"measurement": "IVSd", "setting": "[1]; [6]", "value": "1.4 ± 0.1", "unit": "mm"}, {"measurement": "LVEDd", "setting": "[1]; [6]", "value": "5.4 ± 0.4", "unit": "mm"}, {"measurement": "LVESd", "setting": "[1]; [6]", "value": "3.4 ± 0.3", "unit": "mm"}]}
